Where “and” joins values, the source holds several entries; their conditions need not be identical. Equal values may be shown once.
Experiments:
Format in all cases: in vivo
[1] = test system: Cockroaches; experiment: Cockroach toxicity by forced exposure on treated filter paper; conditions: forced exposure 24 hours
Method: Additionally, toxicity was determined by forced exposure testing under the following protocol. Filter paper circles were treated with test compound. Cockroaches were released onto the treated circles and covered with inverted plastic cylinders placed over the paper discs. The cockroaches were left on the substrates for 24 hours and checked for mortality.

[2] = test system: brown marmorated stink bugs (BMSB); experiment: Brown marmorated stink bug repellency, treated vs. untreated filter paper arena
Method: The two semi-circle filter papers were aligned together to completely cover the bottom of the test arena. Control arenas were also set up in a similar fashion except both were treated with acetone. Five replicates of 5 BMSB were then introduced into both the treated and control arenas. By releasing them in the center of the arena, the BMSB were presented with a choice of treated vs. untreated substrate (or untreated vs. untreated in the control arenas). The repellency of the BMSB was recorded at 24 hours post-treatment.

[3] = test system: stable flies; experiment: Human forearm test against stable flies, time to first confirmed bite; conditions: average of two trials, maximum 8 hours
Method: Two insect repellents per day were tested by applying one on each arm of a human subject and inserting the arms into a cage containing 50 stable flies. The exposure period was five minutes at every 30 minute interval until the first time a confirmed bite was […] The stable flies were reared at ambient temperature, relative humidity and photoperiod. Groups of 50 flies were aspirated from the cage and released into 16 oz. cups with screened lids, which were used to release flies into the two test cages. […] Adjacent areas above and below the treated area were protected with elastic bandages held in place with Elastikon® surgical tape.
The application rate was between 0.65 ml and 1 ml/250 cm^2 for all repellents. The actual amount of repellent used was based upon the amount that provides thorough coverage of the 250 cm^2 treatment area. A repellent was applied using either a micropipette or a syringe minus the needle. The repellents were then evenly spread on the treatment area with a gloved finger. Each test subject's forearms were allowed to air dry for approximately 30 minutes prior to the first exposure. The study coordinator or technician assisted the test subjects in inserting their arms into the test cages, taking care not to rub them on the cloth sleeve. Both treated arms were inserted into a cage; there were two subjects (4 arms) per cage. The test subjects exposed their treated forearms to the flies in the test cages for 5 minutes. The subjects then removed their arms from the cages with assistance from the study coordinator or a technician. Exposures of each arm were repeated every 30 minutes until the repellent on that arm was determined to be no longer effective (‘breakdown’) or until 8 hours have elapsed, whichever occurs first.
Breakdown occurs when the first confirmed bite is noted. A confirmed bite occurs when a bite is followed by a second bite in the same exposure period or in the next succeeding exposure period. The second bite becomes the confirming bite and the breakdown time is taken as the time of the first bite. When a confirmed bite occurs, testing is discontinued on that arm. Results in Table 3 below are the average of two trials on two different test subjects. Compounds were diluted in isopropyl alcohol.

[4] = test system: Brown Dog Ticks; experiment: Second repellent assay against Brown Dog Ticks; conditions: 15% in isopropyl alcohol
Method: Also, a second repellent assay was used to evaluate six test samples against Brown Dog Ticks. Five replicates of five ticks were given the opportunity to quest onto a vertical strip of untreated filter paper and then allowed to move upward toward a second vertical strip of filter paper treated with one of the six candidate repellents or DEET®. In the control situation, the second strip was treated with isopropanol. They were then observed for directional or behavioral changes caused in response to contact with the repellent. Ticks were recorded as either repelled or not repelled. Compounds were diluted in isopropyl alcohol. The percentages of ticks repelled are shown below in Table 6.

[5] = test system: Black Widow spiders; experiment: Black Widow spider choice test in half-treated tube shelters; conditions: 5% in isopropanol; location after 24 hours
Method: Control against Black Widow spiders was determined using the following protocol. One test container containing two card stock tube shelters, one half treated with a test sample and the other half treated with isopropanol was prepared. A spider was introduced in the center of the tube. The spider was then given a choice to move to one end of the shelters. The following day, its location is recorded and compared to the results from a shelter containing untreated half-shelters.
On the day of the test one of the two shelters was sprayed with the test sample solution using a 2 oz pump spray bottle. Only the surfaces that the spider will most likely contact were treated. Therefore, only the inside of one of the shelter tubes, including the end disc (spiders will not be able to access the outside part of the shelter) were sprayed. The total amount of product was weighed and recorded. The treated surface was allowed to dry for a minimum of ½ hour, or until solvent could not be detected by smell. At this time the shelter tubes were assembled.
Card stock paper tube shelters were constructed from 2 half-letter sized sheets (5½″×8½″) of paper, rolled and taped together to form a short tube. One end of each was covered with a circle of card stock paper, while the other end was later taped to the open end of the other half sheet, forming one long tube. […] The solvent-treated half was labeled with a “C” on the inner and outer walls with a pencil or a pen with solvent resistant ink. Prior to forming the final tube shelter, a semi-circular hole was cut into one of the margins of each sheet such that, once the two tubes are taped together, the holes correspond to the top and at the junction of the tubes for introduction of the spiders.
Twenty-five arenas were prepared in this manner for each test sample. There were five replicates of five spiders. Twenty-five additional control arenas were also prepared. They were prepared the same way, except that areas to be sprayed were sprayed with isopropanol only.
Replicates of five spiders were selected for each test formulation and for the control. The specimens were visually examined for overall physical condition. […] The spiders were transferred directly into the holding vials using flexible forceps or with a little coaxing with an artist brush. Because of their cannibalistic tendencies, each vial contained only one spider. There they were held until the time for testing.
At the test start the spiders were placed directly in the middle, through the opening at the top of the shelter tube, and the opening covered, with only one spider per arena. […] They were left alone for 24 hours, after which time their location within the arena was recorded. Spiders present inside the shelter treated with the test repellent were considered tolerant.

[6] = test system: Brown Dog Ticks, Rhipicephalus sanguineus; experiment: Brown Dog tick repellency on vertical filter paper strips; conditions: 7.5% in isopropyl alcohol
Method: Control against Brown Dog ticks was determined in the following protocol. Strips of filter paper, 1″ by 3″, were placed on a sheet of aluminum foil treated with 1 ml each of the test samples and allowed to dry. The end of each treated strip was stapled to an untreated filter paper strip of the same dimensions. The stapled strips were suspended in a vertical position above a tray, with the treated half attached to a horizontal glass rod by a metal clip. The untreated half was lowered when the strip is vertically positioned. Brown Dog Ticks, Rhipicephalus sanguineus, mixed sexes, were purchased from a supplier. Five replicates of five ticks for each treatment regimen plus five additional replicates for the control were employed. Ticks shipped to the test site were given at least one day to acclimate to “shipping stress” before they are used for testing. Those tick specimens which appeared sluggish or moribund were not used. Suitable ticks were removed from their containers and allowed to quest on the free end of the test strip. Once present on the strip they were watched as they crawled up the strip until they contacted the treated paper. If the tick, once in contact with the treated zone, either turned around, stopped without proceeding further, or dropped off, the tick is classified as repelled. If it continued to crawl onto the treated strip, even after it stopped briefly, that tick was classified as not repelled. A maximum observation time of 1 minute per replicate was allowed for ticks to respond after reaching the treated area, but during the test, if more time was needed, the maximum observation time may have been adjusted at the discretion of the study coordinator. At the end of the observation time, the number of ticks repelled was recorded. Tick behavior was recorded when applicable, such as whether increased number of affected or repelled ticks occurred in successive replicates over time. After the completion of each treatment parameter, the testing chamber was ventilated for five minutes by turning on the exhaust fan and opening the door leading into the chamber. Ticks were used only once. Average number of ticks displaying each behavior category were calculated and compared to the control replicates.

[7] = test system: German cockroaches; experiment: German cockroach repellency, choice of food stations in arena; conditions: 50% in acetone; at 4 hours
Method: The efficacy of compounds of this invention to control or repel German cockroaches was illustrated using the following protocol. One food pellet each was placed on a paper square (station) treated with one of the repellent materials. Materials were diluted to 50% in acetone and a straight acetone station was also used. Both stations were placed on the same side of the arena. Cockroaches were starved for 2 days and then released into the arena. They were given a choice to feed on either food pellet. A control arena with an acetone treated station and an untreated station was also used. The distribution of cockroaches within the arena was recorded at 30 minute intervals over 4 hours. Repellency at 4 hours was calculated by the number of cockroaches on the untreated station vs. the total number of cockroaches on the stations.

[8] = test system: house flies; experiment: House fly repellency on treated filter paper food trays in cages; conditions: over 6 hours
Method: The bottom of each cage was lined with brown craft paper and divided into 4 equal quadrants. Each quadrant housed a makeshift filter paper food tray. Two of the four filter papers were treated with repellent and two treated with isopropanol. Control cages contained filter papers that were treated with 4 filter papers of isopropanol only. The number of flies resting on filter paper per quadrant was recorded every 30 minutes for a total of 6 hours. Cages were rotated to eliminate positional bias. […] Each of the test samples were diluted in isopropyl alcohol.

[9] = 30% in isopropyl alcohol on forearm

Row | SMILES | % Repellency at 24 hours ([2]; 2.5% in isopropyl alcohol) [%] | 100% bite protection for [3, 9] [h] | % Repellency 4 hr [7] | Overall % Repellency ([8]; 7.5% in isopropyl alcohol) [%] | other results
1 | CCCCCCCC1CC(=O)C=C(C)C1 (stereo not shown) [3-Methyl-5-heptyl-2-cyclohexenone, 3-methyl-5-heptyl-2-cyclohexenone] |  |  |  |  | Mortality @ 24 hours ([1]; 2.5% in acetone): 10%
2 | CCCCCC1CC(=O)C=C(C)C1 (stereo not shown) [3-Methyl-5-pentyl-2-cyclohexenone, 3-methyl-5-pentyl-2-cyclohexenone] |  |  |  |  | Mortality @ 24 hours ([1]; 2.5% in acetone): 96%
3 | CC1CCC(C(C)(C)O)C(O)C1 (stereo not shown) [PMD, p-Menthane-3,8-diol, reference compound] | 80 | 6.5 |  |  | 100% bite protection for ([3]; 15% in isopropyl alcohol on forearm): 4.25 h
4 | CCCCCC1C(=O)CCC1CC(=O)OCCC (stereo not shown) [Propyl dihydrojasmonate, propyl dihydrojasmonate] | 80 | 4 | 87.5% | 23 | Mean % repelled [4]: 100%; % Repellency at 24 hours ([2]; 5% in isopropyl alcohol): 100%; % Repellency [5]: 62.5%; Mean % repelled [6]: 96%; Overall % Repellency ([8]; 5% in isopropyl alcohol): 52%
5 | CCCCCCCCCCCCCC1CCC(=O)O1 (stereo not shown) [gamma-Heptadecalactone] |  |  | 100% | 39 | Mortality @ 24 hours ([1]; neat): 22%
6 | CCCCCCCCCC1(C)CCC(=O)O1 (stereo not shown) [gamma-Methyl tridecalactone, gamma methyl tridecalactone] | 80 | 1.75 |  |  | 
7 | CCCCCCCCCCC1CCC(=O)O1 (stereo not shown) [gamma-Tetradecalactone, gamma-tetradecalactone] | 82 |  | 82.4% and 75% | 80 | Mean % repelled [4]: 92%; % Repellency at 24 hours ([2]; 5% in isopropyl alcohol): 91%; Mortality @ 24 hours ([1]; neat): 46%

From US10785978B2, “Control and repellency of biting flies, house flies, ticks, ants, fleas, biting midges, cockroaches, spiders and stink bugs” (priority 2012, dated 2020)
